In US7335632B2, “Beta-secretase inhibitors and methods of use thereof” (CoMentis, Inc., priority 2001, dated 2008):

Legend:
memapsin 1 = target: T1, memapsin 1 (Homo sapiens, UniProt Q9Y5Z0); assay: Inhibition of memapsin 1 beta-secretase activity (substrate peptide […], MALDI-TOF); format: biochemical; conditions: pH 4.1, 37 degrees C., substrate NH3-ELDLAVEFWHDR-CO2, MALDI-TOF; read-out: M1 Ki
T1 sequence (Q9Y5Z0 63-518): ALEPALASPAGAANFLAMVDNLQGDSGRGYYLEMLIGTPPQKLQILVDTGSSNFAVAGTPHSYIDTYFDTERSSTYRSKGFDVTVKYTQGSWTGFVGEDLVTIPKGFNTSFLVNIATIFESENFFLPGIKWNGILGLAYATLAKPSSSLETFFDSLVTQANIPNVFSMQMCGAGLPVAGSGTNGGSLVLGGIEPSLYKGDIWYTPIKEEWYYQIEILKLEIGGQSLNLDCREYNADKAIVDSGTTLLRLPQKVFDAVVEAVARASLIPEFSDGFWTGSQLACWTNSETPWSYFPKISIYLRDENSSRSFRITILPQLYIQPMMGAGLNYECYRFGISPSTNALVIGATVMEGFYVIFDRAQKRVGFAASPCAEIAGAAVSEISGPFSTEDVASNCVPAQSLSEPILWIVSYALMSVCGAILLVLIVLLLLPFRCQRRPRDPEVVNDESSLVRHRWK

Aβ production = assay: Cellular Aβ IC50 determination (Aβ40 sandwich ELISA); format: cell-based; conditions: Cricetulus griseus, Chinese hamster ovary cells over-expressing human APP695 with London and Swedish mutations, 24 h
Experimental: The potency of compounds against memapsin 2 activity was determined in a cellular assay of Aβ production. […] Chinese hamster ovary cells that over-express human APP695 with the London and Swedish mutations were seeded in multi-well plates at 10% confluency. Compounds were dissolved in DMSO to concentrations near 1 mM, and diluted into culture media to a final concentration near 4 μM (final 0.4% DMSO). Compounds were diluted serially and applied to cells in multi-well plates 48 h after seeding. Incubation was continued in 5% CO2 at 37 degrees C. for 24 h. Aliquots were removed and assayed for Aβ40 content using a sandwich ELISA (BioSource International). Amount of Aβ40 over the range of concentration of compounds, relative to control incubations, were fit to a 4-parameter IC50 model.

Cathepsin D = Cathepsin D (Homo sapiens, UniProt P07339); assay: Inhibition of cathepsin D activity (substrate peptide […], MALDI-TOF); format: biochemical; conditions: pH 4.1, 37 degrees C., substrate NH3-[…]-CO2, MALDI-TOF; read-out: Cath D Ki
Chain of Cathepsin D (P07339 65-412, species assumed): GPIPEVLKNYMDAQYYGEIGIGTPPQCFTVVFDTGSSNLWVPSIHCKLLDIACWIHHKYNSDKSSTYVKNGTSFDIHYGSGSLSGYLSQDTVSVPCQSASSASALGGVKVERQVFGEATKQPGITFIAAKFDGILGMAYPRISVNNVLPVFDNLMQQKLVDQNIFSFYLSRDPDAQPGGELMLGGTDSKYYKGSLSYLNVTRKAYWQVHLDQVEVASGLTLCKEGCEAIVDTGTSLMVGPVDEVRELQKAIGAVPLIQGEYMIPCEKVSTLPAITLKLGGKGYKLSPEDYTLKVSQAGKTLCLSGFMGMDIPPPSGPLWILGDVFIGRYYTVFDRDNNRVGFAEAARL

memapsin 2 = memapsin 2 (Homo sapiens, UniProt P56817); assay: Inhibition of memapsin 2 beta-secretase activity toward fluorogenic substrate FS-2; format: biochemical; conditions: pH 4, 37° C., 20 minutes pre-incubation, substrate FS-2, tight-binding model; read-out: M2 Ki
Chain of memapsin 2 (P56817 46-501): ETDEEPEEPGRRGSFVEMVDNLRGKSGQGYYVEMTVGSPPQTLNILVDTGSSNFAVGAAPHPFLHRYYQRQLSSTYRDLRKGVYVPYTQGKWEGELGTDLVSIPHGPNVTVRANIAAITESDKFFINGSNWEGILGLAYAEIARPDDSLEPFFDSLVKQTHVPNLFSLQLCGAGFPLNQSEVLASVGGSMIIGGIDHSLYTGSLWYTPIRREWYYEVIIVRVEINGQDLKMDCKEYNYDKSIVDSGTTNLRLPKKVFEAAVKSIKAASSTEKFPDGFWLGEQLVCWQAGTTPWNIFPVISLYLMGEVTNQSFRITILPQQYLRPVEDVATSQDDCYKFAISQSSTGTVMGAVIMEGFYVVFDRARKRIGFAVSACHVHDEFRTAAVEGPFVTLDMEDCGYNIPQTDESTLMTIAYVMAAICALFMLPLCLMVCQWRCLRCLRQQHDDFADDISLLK
Experimental: Potency of compounds were determined by measurement of their inhibition of memapsin 2 activity toward a fluorescent substrate. […] Briefly, assays were performed at pH 4, 37° C., by pre-incubation of memapsin 2 enzyme with compound for 20 minutes. Activity measure was initiated by addition of a fluorogenic substrate FS-2 (Bachem Americas, Torrance, Calif.). Fluorescent signal increase over time was measured as a rate of hydrolysis of the peptide substrate.

Compound	Ki (memapsin 1) [nM]	IC50 (Aβ production) [nM]	Ki (Cathepsin D) [nM]	Ki (memapsin 2) [nM]
CCSC[C@H](NC(=O)OCc1nc(C)cs1)C(=O)N[C@H](CC(C)C)[C@@H](O)C[C@@H](C)C(=O)N[C@@H](C(=O)NCC(C)C)C(C)C [Structure 19]	< 100	> 100000	< 100	< 100
CCS(=O)(=O)C[C@H](NC(=O)OCc1nc(C)cs1)C(=O)N[C@H](CC(C)C)[C@@H](O)C[C@@H](C)C(=O)N[C@@H](C(=O)NCC(C)C)C(C)C [Structure 22]	100 to 1000	< 6000	100 to 1000	< 100
CSC[C@H](NC(=O)OCc1nc(C)oc1C)C(=O)N[C@H](CC(C)C)[C@@H](O)C[C@@H](C)C(=O)N[C@@H](C(=O)NCC(C)C)C(C)C [Structure 29]	100 to 1000	< 6000	< 100	< 100
COCCOCS(=O)(=O)C[C@H](NC(=O)OCc1nc(C)cs1)C(=O)N[C@H](CC(C)C)[C@@H](O)C[C@@H](C)C(=O)N[C@@H](C(=O)NCC(C)C)C(C)C [Structure 30]	100 to 1000	< 6000	100 to 1000	< 100
Cc1csc(COC(=O)N[C@@H](CS(=O)(=O)C(C)C)C(=O)N[C@H](CC(C)C)[C@@H](O)C[C@@H](C)C(=O)N[C@@H](C(=O)NCC(C)C)C(C)C)n1 [Structure 31]	100 to 1000	6000 to 100000	100 to 1000	< 100
Cc1csc(COC(=O)N[C@@H](CSC(C)C)C(=O)N[C@H](CC(C)C)[C@@H](O)C[C@@H](C)C(=O)N[C@@H](C(=O)NCC(C)C)C(C)C)n1 [Structure 32]	100 to 1000	< 6000	< 100	< 100
CSC[C@H](NC(=O)C(C)Cc1nc(C)cs1)C(=O)N[C@H](CC(C)C)[C@@H](O)C[C@@H](C)C(=O)N[C@@H](C(=O)NCC(C)C)C(C)C (stereo partly shown) [Structure 34]	100 to 1000	< 6000	< 100	< 100
COCS(=O)(=O)C[C@H](NC(=O)OCc1nc(C)cs1)C(=O)N[C@H](CC(C)C)[C@@H](O)C[C@@H](C)C(=O)N[C@@H](C(=O)NCC(C)C)C1CCCCC1 [Structure 35]	100 to 1000	> 100000	100 to 1000	< 100
COCSC[C@H](NC(=O)OCc1nc(C)cs1)C(=O)N[C@H](CC(C)C)[C@@H](O)C[C@@H](C)C(=O)N[C@@H](C(=O)NCC(C)C)C(C)C [Structure 36]	< 100	< 6000	< 100	< 100
Cc1csc(CC(C)C(=O)N[C@@H](CS(C)(=O)=O)C(=O)N[C@H](CC(C)C)[C@@H](O)C[C@@H](C)C(=O)N[C@@H](C(=O)NCC(C)C)C(C)C)n1 (stereo partly shown) [Structure 37]	100 to 1000	> 100000	100 to 1000	< 100
CSC[C@H](NC(=O)CCc1nc(C)cs1)C(=O)N[C@H](CC(C)C)[C@@H](O)C[C@@H](C)C(=O)N[C@@H](C(=O)NCC(C)C)C(C)C [Structure 39]	100 to 1000	> 100000	< 100	< 100
Cc1csc(CCC(=O)N[C@@H](CS(C)(=O)=O)C(=O)N[C@H](CC(C)C)[C@@H](O)C[C@@H](C)C(=O)N[C@@H](C(=O)NCC(C)C)C(C)C)n1 [Structure 40]	100 to 1000	> 100000	100 to 1000	< 100
CSC[C@H](NC(=O)OCc1nc(C)cs1)C(=O)N[C@H](CC(C)C)[C@@H](O)C[C@@H](C)C(=O)N[C@H](CC(C)C)C(=O)NC(C)C [Structure 43]	100 to 1000	6000 to 100000	< 100	< 100
Cc1csc(COC(=O)N[C@@H](CS(C)(=O)=O)C(=O)N[C@H](CC(C)C)[C@@H](O)C[C@@H](C)C(=O)N[C@H](CC(C)C)C(=O)NC(C)C)n1 [Structure 46]	100 to 1000	< 6000	100 to 1000	< 100
Cc1csc(COC(=O)N[C@@H](CSCC(C)C)C(=O)N[C@H](CC(C)C)[C@@H](O)C[C@@H](C)C(=O)N[C@@H](C(=O)NCC(C)C)C(C)C)n1 [Structure 47]	100 to 1000	< 6000	< 100	< 100
Cc1nc(COC(=O)N[C@@H](CS(C)(=O)=O)C(=O)N[C@H](CC(C)C)[C@@H](O)C[C@@H](C)C(=O)N[C@@H](C(=O)NCc2ccncc2)C(C)C)c(C)o1 [Structure 48]	100 to 1000	< 6000	100 to 1000	< 100
Cc1csc(COC(=O)N[C@@H](CS(=O)(=O)CC(C)C)C(=O)N[C@H](CC(C)C)[C@@H](O)C[C@@H](C)C(=O)N[C@@H](C(=O)NCC(C)C)C(C)C)n1 [Structure 49]	< 100	> 100000	100 to 1000	< 100
CSC[C@H](NC(=O)OCc1nc(C)oc1C)C(=O)N[C@H](Cc1ccccc1)[C@@H](O)C[C@@H](C)C(=O)N[C@@H](C(=O)NCC(C)C)C(C)C [Structure 50]	< 100	6000 to 100000	< 100	100 to 1000
CSC[C@H](NC(=O)OCc1nc(C)sc1C)C(=O)N[C@H](CC(C)C)[C@@H](O)C[C@@H](C)C(=O)N[C@@H](C(=O)NCC(C)C)C(C)C [Structure 53]	< 100	< 6000	< 100	< 100
Cc1nc(COC(=O)N[C@@H](CS(C)(=O)=O)C(=O)N[C@H](CC(C)C)[C@@H](O)C[C@@H](C)C(=O)N[C@@H](C(=O)NCC(C)C)C(C)C)c(C)s1 [Structure 54]	< 100	< 6000	100 to 1000	< 100
Cc1csc(COC(=O)N[C@@H](CS(C)(=O)=O)C(=O)N[C@H](Cc2ccccc2)[C@@H](O)C[C@@H](C)C(=O)N[C@@H](C(=O)NCC(C)C)C(C)C)n1 [Structure 55]	< 100	6000 to 100000	< 100	< 100
Cc1csc(COC(=O)N[C@@H](CSC2CCCC2)C(=O)N[C@H](CC(C)C)[C@@H](O)C[C@@H](C)C(=O)N[C@@H](C(=O)NCC(C)C)C(C)C)n1 [Structure 56]	100 to 1000	> 100000	< 100	< 100
Cc1nc(COC(=O)N[C@@H](CS(C)(=O)=O)C(=O)N[C@H](CC(C)C)[C@@H](O)C[C@@H](C)C(=O)N[C@@H](C(=O)NN(C)C)C(C)C)c(C)o1 [Structure 57]	100 to 1000	< 6000	100 to 1000	< 100
Cc1csc(COC(=O)N[C@@H](CS(=O)(=O)C2CCCC2)C(=O)N[C@H](CC(C)C)[C@@H](O)C[C@@H](C)C(=O)N[C@@H](C(=O)NCC(C)C)C(C)C)n1 [Structure 58]	100 to 1000	< 6000	100 to 1000	< 100
Cc1nc(COC(=O)N[C@@H](CS(=O)(=O)C(C)C)C(=O)N[C@H](CC(C)C)[C@@H](O)C[C@@H](C)C(=O)N[C@@H](C(=O)NCC(C)C)C(C)C)c(C)o1 [Structure 59]	100 to 1000	6000 to 100000	100 to 1000	< 100
